Patent publication US20260235610A1, “METHOD OF PREDICTING SUCCESS OF A CANCER THERAPY” (IMMUSMOL SAS, priority 2023, published 2026)

Columns and labels:
TPH1 = target: T1, TPH1 (Homo sapiens, UniProt P17752); test: Tryptophan metabolites (Trp, 5HTP, 5HT and ratios) in QGP1-conditioned media as surrogate of TPH1 activity; type: cell-based; conditions: QGP1 cells cultured 48 hours; for effect on C-Media decrease in Trp level and concomitant increase of 5HTP, 5HT, 5HTP/Trp and 5HT/Trp ratios: Telotristat 1 μM, PEA 300 μM, versus C-Media alone
T1 construct: QGP1 neuroendocrine tumor cell line characterized by a high TPH1 expression and activity; endogenous in cells; host or cells: QGP-1 neuroendocrine tumor cell line
T1 sequence (P17752 1-444): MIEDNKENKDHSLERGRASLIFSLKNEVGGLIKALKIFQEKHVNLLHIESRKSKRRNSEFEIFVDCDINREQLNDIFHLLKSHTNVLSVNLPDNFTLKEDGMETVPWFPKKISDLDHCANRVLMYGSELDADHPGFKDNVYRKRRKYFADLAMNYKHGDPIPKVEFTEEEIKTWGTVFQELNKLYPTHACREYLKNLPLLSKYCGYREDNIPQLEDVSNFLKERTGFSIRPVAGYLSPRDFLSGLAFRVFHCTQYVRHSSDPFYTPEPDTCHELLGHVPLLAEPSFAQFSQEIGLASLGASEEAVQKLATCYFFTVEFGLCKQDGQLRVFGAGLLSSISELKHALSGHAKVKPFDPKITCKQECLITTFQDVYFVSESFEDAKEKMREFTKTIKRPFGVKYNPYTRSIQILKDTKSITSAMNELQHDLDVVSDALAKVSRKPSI
Method: The impact of TPH1^High conditioned culture media (C-Media) on immune cell activation was evaluated. QGP1 neuroendocrine tumor cell line characterized by a high TPH1 expression and activity was cultured over a 48-hour period in the presence and absence of Telotristat (TPH1 inhibitor) or Phenethylamine (PEA) alone and in the presence of Telotristat.
The media characteristics were as follows: • i) NC-Media • ii) C-Media • iii) C-Media+Telotristat (TPH1 inhibitor) • iv) C-Media+Phenethylamine (PEA) • v) C-Media+Telotristat (TPH1 inhibitor)+Phenethylamine (PEA)
(§1) The QGP-1 cell line was cultured in RPMI-1640 medium, supplemented with 10% (v/v) FCS and penicillin-streptomycin in a humidified incubator at 5% CO2 and 37° C. In order to prepare the conditioned media, cells were cultured in 6-well plates for 48 hours in the presence and absence of Telotristat (1 μM), a TPH1 inhibitor, and in the presence and absence of Phenethylamine (PEA; 300 μM), a TPH1 inducer (Zhai et al., 2023). QGP1-conditioned media (C-Media) were used to culture human PBMCs (Peripheral Blood Mononuclear Cells) originating from one healthy donor for a 72-hour period under anti-CD3 activation (0.5 μg/mL). As control, fresh cell culture media (Non-Conditioned Media (NC-Media) was used.
Each analytes-Tryptophan (Trp), 5-hydroxyTryptopan (5HTP) and Serotonin (5HT)-were measured individually and then used to calculate ratio, i.e. 5HTP/Trp and 5HT/Trp as representative surrogate of TPH1 activity.
Tryptophan was quantified using an immunoassay (#BA-E-2700, ImmuSmol, Bordeaux, FRANCE). Briefly, in order to remove proteins, 20 μL of sample were precipitated, vortexed and then centrifuged for 15 minutes (3,000 g, at 4° C.). Twenty five microliters of supernatant were then used for derivatization for a 2 hour period at room temperature. Once the derivatization was achieved, 25 μL of the solution was applied on a 96-microtiters prior addition of 50 μL of anti-Tryptophan antiserum. […]
5-HdroxyTryptophan was quantified using an immunoassay. […]
Serotonin was quantified using an immunoassay (#BA-E-5900R, ImmuSmol, Bordeaux, FRANCE). […]

human PBMCs = test: anti-CD3 mediated PBMCs activation in QGP1-conditioned media, IFN-γ measurement by HTRF; type: cell-based; conditions: anti-CD3 0.5 μg/mL; for effect on C-Media induced decrease in anti-CD3 mediated PBMCs activation (IFN-γ): PBMCs of one healthy donor, 72 hours, conditioned media prepared with Telotristat 1 μM or PEA 300 μM
Method: Culture supernatant was then collected and applied on peripheral blood mononuclear cells (PBMCs) cultivated under anti-CD3-based activation for 3-days.
as §1
At the end of PBMCs treatment period as described above, cell culture supernatants were collected and subjected to IFN-γ measurement by mean of HTRF (Homogeneous Time Resolved Technology, Perkin Elmer) which serves as a surrogate of immune cell activation (FIG. 12). HTRF is a standard technique well-known in the art and therefore perfectly within the routine of the skilled person.

SMILES | effect on C-Media decrease in Trp level and concomitant increase of 5HTP, 5HT, 5HTP/Trp and 5HT/Trp ratios (TPH1) | effect on C-Media induced decrease in anti-CD3 mediated PBMCs activation (IFN-γ) (human PBMCs) | effect on PEA-induced TPH1 activity (TPH1; Telotristat 1 μM plus PEA 300 μM) | effect on the more limited immune cell activation associated with PEA-induced TPH1 activation (IFN-γ) (human PBMCs; PBMCs 72 hours, conditioned media prepared with Telotristat 1 μM plus PEA 300 μM)
NCCc1ccccc1 [PEA, Phenethylamine] | further increased | increased | – | –
Cc1ccn(-c2cc(Cl)ccc2[C@@H](Oc2cc(-c3ccc(C[C@H](N)C(=O)O)cc3)nc(N)n2)C(F)(F)F)n1 [Telotristat] | largely limited | limited | able to limit PEA-induced TPH1 activity | alleviated
